Assay results from article PMC1097768 (Nucleic Acids Research, 2005).

Biological target: mNdK (nucleoside diphosphate kinase) (Mycobacterium tuberculosis, UniProt P9WJH7)
Experiment: FRET molecular beacon nuclease assay with FP1T, Lineweaver-Burk analysis
Format: biochemical

Chain of mNdK (nucleoside diphosphate kinase) (P9WJH7 whole entry): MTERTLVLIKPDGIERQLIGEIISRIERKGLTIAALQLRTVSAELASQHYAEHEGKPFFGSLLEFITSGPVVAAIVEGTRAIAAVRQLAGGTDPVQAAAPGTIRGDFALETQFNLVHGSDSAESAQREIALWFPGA

SMILES: Nc1nc2c(ncn2[C@@H]2O[C@H](COP(=O)(O)OP(=O)(O)O)[C@@H](O)[C@H]2O)c(=O)[nH]1 [GDP]
- Ki: ~1900 µM
